Test results published in paper PMC7016952, “Characterization of the Menin-MLL Interaction as Therapeutic Cancer Target” (Cancers, 2020).
Residues, ends and D or L forms follow the SMILES beside them. *: point of attachment. Cbz = O=C(OCc1ccccc1)*

Key:
VCaP xenograft = VCaP xenograft efficacy; format: in vivo, mice
Procedure: (§1) Tumor cells were injected subcutaneously into the flanks of 6- to 9-week old animals. Efficacy studies in xenograft models were performed at Bayer or EPO GmbH (Berlin-Buch, Germany) using NMRI nu/nu, SCID, BALB/c Nude female mice or SCID male mice (VCaP tumors). All animal studies were conducted in accordance with the animal welfare laws and were approved by the State Office for Health and Social Affairs Berlin (LAGeSo). Experiments were run under the animal license B3600a0007. Compound treatment started at a predefined tumor size or burden or at a predefined day after cell inoculation. BAY-155 was administered orally (p.o.) at various doses and regorafenib, tamoxifen and enzalutamide (resuspended in PEG400/H2O 6/4 or PEG400/EtOH 9/1) were used as control treatment for RKO, MCF7 and VCaP xenografts, respectively. Subcutaneous tumor volumes were determined by caliper measurement.

[1] = test system: AR signaling pathway genes in VCaP tumor samples; assay: Ex vivo gene expression in VCaP xenografts; design: species or system mice; conditions: 52 days of treatment
Procedure: (§2) Total RNA was isolated using RNeasy-Plus Mini kit (Qiagen, Hilden, Germany). RNA (1 μg) was reverse transcribed using SuperScript III First-Strand Synthesis SuperMix (Life Technologies) and the generated cDNA was analyzed with commercial primers (Supplementary Materials Table S1) by qRT-PCR using TaqMan Fast Advanced Master Mix (Life Technologies). For the RNA-seq study, ZR-75-1, BT474, PANC-1, MiaPaCa-2, 22RV1, JMSU-1, DLD-1, SW1463, LoVo and G401 cells were treated with 5 µM BAY-155 or DMSO for 48 h prior to RNA extraction. After 48 h of 5 µM BAY-155 or DMSO treatment, MCF7, VCaP and LNCaP cells were stimulated for further 12 h with 0.1 nM of E2 (ß-Estradiol) or 1 nM R1881, respectively. MCF7, VCaP and LNCaP cells were cultured in starvation medium (containing 5 µM BAY-155 or DMSO) 6 h before stimulation. RNA was isolated using RNeasy-Plus Mini kit (Qiagen). The purified RNA was used for library preparation (Illumina, San Diego, CA, USA. TruSeq Stranded mRNA Kit) and the generated libraries were sequenced (Illumina, HiSeq2500 HTv4, SR, dual-indexing, 50 cycles).
(§3) Tumors were harvested, dissociated and total RNA was extracted using the TissueLyser (Qiagen, Hilden, Germany) together with RNeasy-Plus Mini kit according to the manufacturer protocol.

CYP 3A4 = CYP 3A4 (Homo sapiens, UniProt P08684); assay: CYP inhibition 3A4; format: in vitro ADME
MV4;11 cells = assay: Proliferation inhibition, MV4;11; format: cell-based, human; conditions: Homo sapiens, MV4-11; proliferation; read-out: Potency IC50 MV4;11
[2] = test system: safety pharmacology relevant proteins (GPCRs, ion channels and transporters); assay: Selectivity panel of safety pharmacology assays; conditions: 10 µM
CYP 2C8 = CYP 2C8 (Homo sapiens, UniProt P10632); assay: CYP inhibition 2C8; format: in vitro ADME
HL-60 cells = assay: Proliferation inhibition, HL-60; format: cell-based; conditions: Homo sapiens, read-out: Potency IC50 HL-60
CYP 1A2 = CYP 1A2 (Homo sapiens, UniProt P05177); assay: CYP inhibition 1A2; format: in vitro ADME
menin-MLL interaction = molecular target: T1, menin-MLL interaction (Homo sapiens, UniProt O00255); assay: TR-FRET menin-MLL binding assay; conditions: read-out: Potency IC50 Menin-MLL binding
T1 construct: recombinant full length, His-tagged menin
T1 sequence (O00255 1-610): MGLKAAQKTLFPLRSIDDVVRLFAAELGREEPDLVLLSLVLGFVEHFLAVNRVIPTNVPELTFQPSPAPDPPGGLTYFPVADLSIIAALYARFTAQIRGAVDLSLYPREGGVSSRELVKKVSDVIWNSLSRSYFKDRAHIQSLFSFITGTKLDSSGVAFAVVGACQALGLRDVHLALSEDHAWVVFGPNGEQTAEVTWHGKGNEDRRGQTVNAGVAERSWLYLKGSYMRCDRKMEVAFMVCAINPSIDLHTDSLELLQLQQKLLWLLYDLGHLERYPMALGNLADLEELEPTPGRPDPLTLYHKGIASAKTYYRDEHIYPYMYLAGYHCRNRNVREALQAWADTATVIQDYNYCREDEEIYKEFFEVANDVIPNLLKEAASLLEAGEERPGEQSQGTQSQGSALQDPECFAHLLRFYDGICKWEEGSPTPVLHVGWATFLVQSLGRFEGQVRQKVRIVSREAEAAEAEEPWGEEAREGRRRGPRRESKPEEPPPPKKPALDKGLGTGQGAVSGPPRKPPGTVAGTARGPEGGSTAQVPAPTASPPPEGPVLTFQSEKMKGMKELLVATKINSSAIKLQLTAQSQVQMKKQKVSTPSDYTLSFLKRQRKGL

CYP 2D6 = CYP 2D6 (Homo sapiens, UniProt P10635); assay: CYP inhibition 2D6; format: in vitro ADME
[3] = Metabolic stability in rat hepatocytes; format: in vitro ADME; conditions: in vitro maximal bioavailability
Procedure: Liver cells were distributed at a density of 1.0 × 10^6 cells/mL and treated with 1 µM BAY-155 or MI-503. During incubation, the hepatocyte suspensions were continuously shaken, and aliquots were taken at 2, 8, 16, 30, 45, and 90 min, fixed with cold methanol and stored at −20 °C. Next, samples were centrifuged and the supernatant was analyzed with an LC-MS/MS. The compound half-life was determined from the concentration–time plot. The intrinsic clearances were calculated from the half-life, together with additional parameters (liver blood flow, quantity of liver cells in vivo and in vitro).

Jurkat cells = assay: Proliferation inhibition, Jurkat; format: cell-based; conditions: Homo sapiens, read-out: Potency IC50 Jurkat
menin = molecular target: T2, menin (Homo sapiens, UniProt O00255); assay: Isothermal Titration Calorimetry (ITC) on purified menin; format: binding; conditions: ITC, 25 °C, menin 1-615; read-out: KD
T2 construct: purified menin (1–615 with GST-tag cleaved as described above); GST (TEV cleavable) (N, cleaved yes); made in house; host or cells: E. coli BL21 (DE3)
T2 sequence (O00255 1-615 isoform O00255-1): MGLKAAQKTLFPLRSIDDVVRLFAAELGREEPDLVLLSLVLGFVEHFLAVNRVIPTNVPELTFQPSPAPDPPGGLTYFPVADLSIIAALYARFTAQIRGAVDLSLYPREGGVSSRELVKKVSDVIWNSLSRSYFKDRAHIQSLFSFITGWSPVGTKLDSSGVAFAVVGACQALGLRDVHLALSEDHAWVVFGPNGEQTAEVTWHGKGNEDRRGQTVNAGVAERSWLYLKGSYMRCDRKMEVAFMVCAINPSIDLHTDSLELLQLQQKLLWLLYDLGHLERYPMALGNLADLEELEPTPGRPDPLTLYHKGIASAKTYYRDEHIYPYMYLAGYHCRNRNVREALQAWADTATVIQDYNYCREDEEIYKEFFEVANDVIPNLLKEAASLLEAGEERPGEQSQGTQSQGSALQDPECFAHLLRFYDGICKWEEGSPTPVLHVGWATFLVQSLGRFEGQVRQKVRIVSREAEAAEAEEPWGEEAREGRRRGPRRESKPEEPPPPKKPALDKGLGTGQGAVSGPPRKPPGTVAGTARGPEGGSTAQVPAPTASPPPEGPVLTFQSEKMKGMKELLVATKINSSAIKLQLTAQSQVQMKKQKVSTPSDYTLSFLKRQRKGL
Procedure: Cloning of expression vectors for recombinant menin was performed as follows. […] Proteins were expressed in E. coli BL21 (DE3) following 0.1 mM IPTG induction at 17 °C overnight. For purification, cell pellets were resuspended in buffer A (50 mM Tris pH 7.5, 300 mM NaCl, 2 mM DTT). Cells were lysed using a high pressure Microfluidics apparatus and the cell debris pelleted by centrifugation. The supernatant was applied to a GST column (GE Healthcare, Chicago, IL, USA), washed with two column volumes of washing buffer A and eluted with Buffer B (Buffer A plus 15 mM reduced glutathione). If necessary, the purification tag was cleaved off with the addition of His-TEV protease (1:20 mass ratio) during overnight incubation in buffer A. His-TEV was removed by IMAC column rebinding and final protein purification of either GST-cleaved or uncleaved menin-1 was performed by size exclusion chromatography using a HiLoad 16/60 Superdex 200 (GE Healthcare) column in buffer C (Buffer A but 50 mM NACl).
The compound was dissolved in 100% DMSO to a concentration of 10 mM and subsequently diluted to a final concentration of 5 µM in ITC Buffer. Isothermal Titration Calorimetry (ITC) was performed at 25 °C in a Microcal PEAQ-ITC (Malvern Panalytical). […] Reference Power was set to 6 μcal/s. Data were collected on high feedback mode. Analysis was performed with a single binding site model in the Microcal PEAQ-ITC Analysis Software (Malvern Panalytical).

MOLM-13 cells = assay: Proliferation inhibition, MOLM-13; format: cell-based, human; conditions: Homo sapiens, proliferation, read-out: Potency IC50 MOLM-13
CYP 2C9 = CYP 2C9 (Homo sapiens, UniProt P11712); assay: CYP inhibition 2C9; format: in vitro ADME
[4] = test system: T3, menin protein levels in VCaP cells; assay: Western blot of menin protein level; format: cell-based, human
T3 construct: endogenous in cells; host or cells: VCaP

MCF7 xenograft = MCF7 xenograft efficacy; format: in vivo, mice
Procedure: as §1

[5] = test system: ER signaling pathway genes in MCF7 tumor samples; assay: Ex vivo gene expression in MCF7 xenografts; design: species or system mice; conditions: 27 days of treatment
Procedure: as §2, §3

RKO xenograft = RKO xenograft efficacy; format: in vivo, mice
Procedure: as §1

Sequence of CYP 1A2 (P05177 whole entry): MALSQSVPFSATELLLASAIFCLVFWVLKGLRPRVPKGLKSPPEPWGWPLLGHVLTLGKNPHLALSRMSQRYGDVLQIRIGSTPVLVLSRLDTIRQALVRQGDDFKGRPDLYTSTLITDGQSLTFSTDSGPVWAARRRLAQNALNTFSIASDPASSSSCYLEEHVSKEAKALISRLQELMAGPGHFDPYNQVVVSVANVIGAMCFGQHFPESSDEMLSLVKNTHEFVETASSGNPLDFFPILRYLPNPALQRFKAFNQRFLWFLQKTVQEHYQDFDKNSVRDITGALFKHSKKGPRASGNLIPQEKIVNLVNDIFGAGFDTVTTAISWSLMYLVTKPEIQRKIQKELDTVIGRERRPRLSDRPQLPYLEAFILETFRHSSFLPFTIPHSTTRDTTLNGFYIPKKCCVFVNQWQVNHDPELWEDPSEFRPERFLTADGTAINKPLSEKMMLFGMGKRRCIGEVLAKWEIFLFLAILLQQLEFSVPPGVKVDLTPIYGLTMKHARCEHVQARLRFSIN
Sequence of CYP 2C9 (P11712 whole entry): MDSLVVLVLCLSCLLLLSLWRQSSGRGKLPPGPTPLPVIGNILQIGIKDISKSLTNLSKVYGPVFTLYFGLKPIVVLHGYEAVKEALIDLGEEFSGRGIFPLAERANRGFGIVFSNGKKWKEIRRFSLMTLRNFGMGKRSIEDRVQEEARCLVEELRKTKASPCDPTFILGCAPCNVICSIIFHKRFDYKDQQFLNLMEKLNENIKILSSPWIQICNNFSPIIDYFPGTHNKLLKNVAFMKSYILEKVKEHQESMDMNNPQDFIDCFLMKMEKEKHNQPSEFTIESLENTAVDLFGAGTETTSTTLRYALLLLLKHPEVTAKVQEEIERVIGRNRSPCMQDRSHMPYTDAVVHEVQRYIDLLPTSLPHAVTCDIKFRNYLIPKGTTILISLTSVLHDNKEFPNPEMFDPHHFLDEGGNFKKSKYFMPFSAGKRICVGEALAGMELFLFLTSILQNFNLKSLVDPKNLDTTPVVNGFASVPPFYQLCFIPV
Sequence of CYP 2D6 (P10635 whole entry): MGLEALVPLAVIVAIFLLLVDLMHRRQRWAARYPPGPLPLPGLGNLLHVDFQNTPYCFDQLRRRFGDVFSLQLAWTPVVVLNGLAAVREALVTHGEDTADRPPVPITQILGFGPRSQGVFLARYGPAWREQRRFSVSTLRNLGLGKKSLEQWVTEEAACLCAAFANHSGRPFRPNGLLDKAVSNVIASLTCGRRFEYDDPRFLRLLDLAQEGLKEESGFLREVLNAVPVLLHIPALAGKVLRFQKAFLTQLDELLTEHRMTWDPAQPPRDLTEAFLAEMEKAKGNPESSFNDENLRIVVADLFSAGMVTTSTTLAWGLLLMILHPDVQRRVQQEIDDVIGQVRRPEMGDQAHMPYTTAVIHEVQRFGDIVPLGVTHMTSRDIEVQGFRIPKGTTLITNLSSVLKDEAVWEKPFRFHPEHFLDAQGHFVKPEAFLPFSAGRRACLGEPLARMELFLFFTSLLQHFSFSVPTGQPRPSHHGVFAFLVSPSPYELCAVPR
Sequence of CYP 3A4 (P08684 whole entry): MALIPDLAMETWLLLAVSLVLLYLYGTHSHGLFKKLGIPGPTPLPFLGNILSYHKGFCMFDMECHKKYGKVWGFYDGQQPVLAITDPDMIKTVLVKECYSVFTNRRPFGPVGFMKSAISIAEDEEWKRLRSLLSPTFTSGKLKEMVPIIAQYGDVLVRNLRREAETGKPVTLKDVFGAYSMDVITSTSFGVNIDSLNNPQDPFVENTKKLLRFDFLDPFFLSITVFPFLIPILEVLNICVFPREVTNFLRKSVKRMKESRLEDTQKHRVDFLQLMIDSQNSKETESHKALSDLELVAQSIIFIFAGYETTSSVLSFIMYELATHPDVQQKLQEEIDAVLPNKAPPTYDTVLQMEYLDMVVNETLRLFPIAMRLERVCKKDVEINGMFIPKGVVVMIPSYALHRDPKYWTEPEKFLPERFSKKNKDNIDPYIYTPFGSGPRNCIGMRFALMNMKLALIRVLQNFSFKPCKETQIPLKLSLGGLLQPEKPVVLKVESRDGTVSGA
Sequence of CYP 2C8 (P10632 whole entry): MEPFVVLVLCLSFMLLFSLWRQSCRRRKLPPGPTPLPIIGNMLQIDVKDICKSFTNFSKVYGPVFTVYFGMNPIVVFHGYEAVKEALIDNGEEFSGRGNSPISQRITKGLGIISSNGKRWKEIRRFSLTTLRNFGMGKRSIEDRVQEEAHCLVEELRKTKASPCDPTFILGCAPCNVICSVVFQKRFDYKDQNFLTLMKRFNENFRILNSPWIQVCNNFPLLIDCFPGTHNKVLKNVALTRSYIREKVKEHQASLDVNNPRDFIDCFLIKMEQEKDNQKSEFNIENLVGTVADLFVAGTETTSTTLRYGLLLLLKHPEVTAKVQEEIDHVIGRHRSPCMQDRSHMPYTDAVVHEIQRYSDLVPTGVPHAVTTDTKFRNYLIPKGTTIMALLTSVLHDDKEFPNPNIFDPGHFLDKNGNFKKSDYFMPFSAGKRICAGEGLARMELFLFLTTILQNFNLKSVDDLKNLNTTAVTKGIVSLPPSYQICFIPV

For `CNC(=O)c1ccc(N2C(=S)N(c3ccc(C#N)c(C(F)(F)F)c3)C(=O)C2(C)C)cc1F` [enzalutamide, reference compound], the “tumor volume and tumor weight” value (VCaP xenograft) was “reduced tumor volume and tumor weight” and the “FKBP5 and TMPRSS2 expression ex vivo” value [1] was “significant reduction”.

For `Cc1c(CN2CCC(Nc3ncnc4sc(CC(F)(F)F)cc34)CC2)ccc2c1cc(C#N)n2Cc1cn[nH]c1` [MI-503], the IC50 (CYP 3A4) was 1000 nM, the IC50 (MV4;11 cells) was 251 nM and the “number of tested proteins inhibited by ≥ 50%” value [2] was 28. The IC50 (CYP 2C8) was 4000 nM, the IC50 (HL-60 cells) was 672 nM and the IC50 (CYP 1A2) was > 10000 nM. For the same compound, the “in vivo F Rat” value (In vivo DMPK in rat; rat in vivo bioavailability) was 2.7%, the clearance (In vivo DMPK in rat; whole blood, rat in vivo, read-out: in vivo CL blood Rat (converted)) was 25 mL/min/kg and the IC50 (menin-MLL interaction) was 80 nM. For the same compound, the IC50 (CYP 2D6) was 2400 nM, the “hepatocytes Fmax Rat” value [3] was 48% and the IC50 (Jurkat cells) was 568 nM. It also gave a Kd (menin) of 94 nM, an IC50 (MOLM-13 cells) of 893 nM and an IC50 (CYP 2C9) of 800 nM. The menin protein levels ([4]; Western blot) was “reduce menin protein levels in a time- and concentration-dependent manner”.

For `CC(C)C[C@@H](C=O)NC(=O)[C@H](CC(C)C)NC(=O)[C@H](CC(C)C)NC(=O)OCc1ccccc1` [MG-132] (Cbz-Leu-Leu-Leu-aldehyde), the “rescue of menin protein level under BAY-155 treatment” value ([4]; MG-132 10 µM with BAY-155 10 µM, 16 h) was “fully rescued the menin protein level”.

With `CC/C(=C(\c1ccccc1)c1ccc(OCCN(C)C)cc1)c1ccccc1` [tamoxifen, reference compound] the “tumor volume and tumor weight” value (MCF7 xenograft) was “reduced tumor volume and tumor weight” and the “EGR3, GREB1 and PGR1 expression ex vivo” value [5] was “significant reduction”.

For `CNC(=O)c1cc(Oc2ccc(NC(=O)Nc3ccc(Cl)c(C(F)(F)F)c3)c(F)c2)ccn1` [regorafenib, reference compound], the “tumor volume and weight (anti-growth effects)” value (RKO xenograft) was “pronounced reduction of tumor volume and weight”.
